Measurements taken from patent publication US12398142B2, “Abelson non-tyrosine kinase compounds for the treatment of neurodegenerative diseases” (Emory University, priority 2019, dated 2025).
Where two headings read alike, the source gives them in different places.

What was measured:
hERG = hERG (Homo sapiens (Human), UniProt Q12809); test: hERG profiling, fluorescent Tracer binding competition (FP); conditions: for SI / selectivity ratio at 4 h: human, pH 7.5
Experimental: Compounds were prepared as 10 mM DMSO stock and stored at −80° C.
Assay Format: The assay is based on the competition of fluorescently labeled Tracer binding to the membrane preparation containing hERG.
Assay conditions: 1 nM Predictor™ hERG Tracer Red; 1X Predictor™ hERG Membrane
Assay Procedure: Compounds in DMSO were added into the Membrane mixture by using Acoustic Technology. Tracer was added, and gentled mixed in the dark. FP was measured after 4 hours incubation at room temperature and mP calculated.

CYP2D6 = CYP2D6 (Homo sapiens (Human), UniProt P10635); test: CYP2D6 IC50; type: in vitro ADME; conditions: unit given as mM
CYP3A4 = CYP3A4 (Homo sapiens (Human), UniProt P08684); test: CYP3A4 IC50; type: in vitro ADME; conditions: unit given as mM
ABL1 = ABL1 (Homo sapiens (Human), UniProt P00519); test: Kinase profiling, ABL1 10-dose IC50; type: biochemical
[1] = IC50 of Tracer Binding hERG AVERAGE, first run, average of duplicates
[2] = IC50 of Tracer Binding hERG Data 1, first run, 4 hours incubation
[3] = IC50 of Tracer Binding hERG Data 2, first run
[4] = hERG IC50, summary table, unit given as mM
[5] = 10 μM ATP, first run (TK3-141, TK3-144, CD-1-002), read-out: Compound IC50 ABL1 Data 1
[6] = 10 μM ATP, first run, average of duplicates, read-out: Compound IC50 ABL1 Avg
[7] = 10 μM ATP, first run, read-out: Compound IC50 ABL1 Data 2
[8] = summary table, read-out: Abl1 IC50
[9] = Average hERG (IC50), second run, average
[10] = IC50 of Tracer Binding hERG Data 1, second run
[11] = IC50 of Tracer Binding hERG Data 2, second run
[12] = 10 μM ATP, second run (CD-1-051, ZD-3-167, CD-1-067), read-out: Compound IC50 ABL1 Data 1
[13] = 10 μM ATP, second run, average of duplicates, read-out: Compound IC50 ABL1 Avg
[14] = 10 μM ATP, second run, read-out: Compound IC50 ABL1 Data 2

Sequence of ABL1 (P00519 whole entry): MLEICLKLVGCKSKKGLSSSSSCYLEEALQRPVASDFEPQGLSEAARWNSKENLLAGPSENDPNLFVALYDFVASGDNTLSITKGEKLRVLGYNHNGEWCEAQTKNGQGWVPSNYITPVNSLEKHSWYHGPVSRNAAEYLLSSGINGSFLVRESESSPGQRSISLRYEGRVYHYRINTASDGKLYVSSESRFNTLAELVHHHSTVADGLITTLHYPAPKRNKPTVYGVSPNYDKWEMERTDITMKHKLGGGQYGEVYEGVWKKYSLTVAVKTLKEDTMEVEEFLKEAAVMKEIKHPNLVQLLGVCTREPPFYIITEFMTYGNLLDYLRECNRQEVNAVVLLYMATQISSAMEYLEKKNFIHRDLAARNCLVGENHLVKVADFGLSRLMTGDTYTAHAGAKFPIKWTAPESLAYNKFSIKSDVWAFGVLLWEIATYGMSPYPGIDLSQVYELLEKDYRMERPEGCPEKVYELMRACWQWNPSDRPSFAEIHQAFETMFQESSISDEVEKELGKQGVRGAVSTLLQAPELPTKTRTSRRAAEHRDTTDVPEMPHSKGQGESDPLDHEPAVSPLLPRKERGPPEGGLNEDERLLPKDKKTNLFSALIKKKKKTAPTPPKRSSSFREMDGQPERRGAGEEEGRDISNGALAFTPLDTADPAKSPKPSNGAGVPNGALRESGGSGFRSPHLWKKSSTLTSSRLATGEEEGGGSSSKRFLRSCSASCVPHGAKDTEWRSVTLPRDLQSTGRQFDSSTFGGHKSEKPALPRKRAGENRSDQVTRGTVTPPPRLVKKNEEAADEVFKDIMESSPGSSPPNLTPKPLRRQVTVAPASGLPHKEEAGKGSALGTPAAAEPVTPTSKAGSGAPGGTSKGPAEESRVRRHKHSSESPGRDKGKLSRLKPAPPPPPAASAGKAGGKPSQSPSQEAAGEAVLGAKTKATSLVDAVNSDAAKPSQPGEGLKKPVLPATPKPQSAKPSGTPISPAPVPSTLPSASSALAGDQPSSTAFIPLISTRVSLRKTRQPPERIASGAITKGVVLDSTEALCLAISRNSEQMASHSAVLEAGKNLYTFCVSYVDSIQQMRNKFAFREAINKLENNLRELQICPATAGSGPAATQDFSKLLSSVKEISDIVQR
Sequence of CYP3A4 (P08684 whole entry, species assumed): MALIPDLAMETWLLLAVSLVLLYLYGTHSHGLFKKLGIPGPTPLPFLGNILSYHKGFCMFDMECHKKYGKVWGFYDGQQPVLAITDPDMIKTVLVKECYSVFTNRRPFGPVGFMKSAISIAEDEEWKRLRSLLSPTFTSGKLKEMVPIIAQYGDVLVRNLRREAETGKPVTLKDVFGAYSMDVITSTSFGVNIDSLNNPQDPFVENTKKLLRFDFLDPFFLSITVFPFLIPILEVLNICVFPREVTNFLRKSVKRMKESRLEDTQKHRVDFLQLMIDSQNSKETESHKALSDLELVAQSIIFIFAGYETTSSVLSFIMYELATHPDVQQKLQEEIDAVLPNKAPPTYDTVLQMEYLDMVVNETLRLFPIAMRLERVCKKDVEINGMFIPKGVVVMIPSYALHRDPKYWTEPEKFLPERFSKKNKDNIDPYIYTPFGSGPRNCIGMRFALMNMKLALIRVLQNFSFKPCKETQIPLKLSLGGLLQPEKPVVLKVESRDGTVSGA
Sequence of hERG (Q12809 whole entry): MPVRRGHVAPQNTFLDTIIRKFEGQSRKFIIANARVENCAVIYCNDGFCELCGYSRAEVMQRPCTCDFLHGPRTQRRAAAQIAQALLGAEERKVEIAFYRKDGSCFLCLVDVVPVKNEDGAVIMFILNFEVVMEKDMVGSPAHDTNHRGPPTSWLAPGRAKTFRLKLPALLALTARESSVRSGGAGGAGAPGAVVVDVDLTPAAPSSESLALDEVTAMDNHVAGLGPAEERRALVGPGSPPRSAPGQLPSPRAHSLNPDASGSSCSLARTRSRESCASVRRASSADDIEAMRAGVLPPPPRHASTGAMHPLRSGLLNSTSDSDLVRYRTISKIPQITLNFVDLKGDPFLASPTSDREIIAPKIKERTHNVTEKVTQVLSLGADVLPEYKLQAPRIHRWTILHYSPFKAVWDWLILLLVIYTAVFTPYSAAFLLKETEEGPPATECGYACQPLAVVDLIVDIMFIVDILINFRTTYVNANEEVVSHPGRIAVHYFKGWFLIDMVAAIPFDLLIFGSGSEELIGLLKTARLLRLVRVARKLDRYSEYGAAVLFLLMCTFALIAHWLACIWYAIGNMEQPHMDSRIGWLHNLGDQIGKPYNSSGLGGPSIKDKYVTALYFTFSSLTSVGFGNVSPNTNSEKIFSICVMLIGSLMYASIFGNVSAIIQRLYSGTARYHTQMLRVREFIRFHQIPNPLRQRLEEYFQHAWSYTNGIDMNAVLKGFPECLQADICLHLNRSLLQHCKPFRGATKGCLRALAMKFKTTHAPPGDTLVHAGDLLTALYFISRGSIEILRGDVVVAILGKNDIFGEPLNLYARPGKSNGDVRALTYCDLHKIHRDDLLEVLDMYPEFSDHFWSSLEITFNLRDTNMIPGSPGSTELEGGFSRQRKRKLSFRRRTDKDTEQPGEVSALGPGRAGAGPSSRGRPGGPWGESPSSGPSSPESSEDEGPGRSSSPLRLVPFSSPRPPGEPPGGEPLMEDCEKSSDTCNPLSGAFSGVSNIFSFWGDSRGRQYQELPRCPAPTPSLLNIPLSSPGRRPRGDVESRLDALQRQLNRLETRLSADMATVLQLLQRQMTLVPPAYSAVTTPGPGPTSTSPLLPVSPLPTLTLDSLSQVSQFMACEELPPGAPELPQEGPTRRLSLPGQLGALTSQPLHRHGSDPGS
Sequence of CYP2D6 (P10635 whole entry, species assumed): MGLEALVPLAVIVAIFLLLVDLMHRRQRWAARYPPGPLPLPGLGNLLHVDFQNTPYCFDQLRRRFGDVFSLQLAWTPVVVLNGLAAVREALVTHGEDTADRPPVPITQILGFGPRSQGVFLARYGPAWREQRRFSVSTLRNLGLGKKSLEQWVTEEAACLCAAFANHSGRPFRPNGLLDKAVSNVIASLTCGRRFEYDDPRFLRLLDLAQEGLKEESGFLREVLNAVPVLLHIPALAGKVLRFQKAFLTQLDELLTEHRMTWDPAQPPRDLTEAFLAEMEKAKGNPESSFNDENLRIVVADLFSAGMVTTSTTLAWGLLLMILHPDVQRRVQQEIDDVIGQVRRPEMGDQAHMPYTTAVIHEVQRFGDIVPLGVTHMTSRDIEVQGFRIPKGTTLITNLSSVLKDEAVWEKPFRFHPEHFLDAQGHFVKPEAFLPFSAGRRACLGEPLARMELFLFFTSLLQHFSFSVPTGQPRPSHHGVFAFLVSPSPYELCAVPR

Row | IC50 (CYP2D6) [mM] | IC50 (CYP3A4) [mM] | IC50 (ABL1; [5]) [nM] | IC50 (ABL1; [6]) [nM] | IC50 (ABL1; [7]) [nM] | IC50 (ABL1; [8]) [nM] | IC50 (ABL1; [12]) [nM] | IC50 (ABL1; [13]) [nM] | IC50 (ABL1; [14]) [nM] | Compound | IC50 (hERG; [1]) [nM] | IC50 (hERG; [2]) [nM] | IC50 (hERG; [3]) [nM] | IC50 (hERG; [4]) [nM] | SI (hERG) | IC50 (hERG; [9]) [nM] | IC50 (hERG; [10]) [nM] | IC50 (hERG; [11]) [nM] | selectivity ratio at 4 h (hERG)
1 | 0.0248 | 0.0128 | 0.686 | 0.643 | 0.601 | 0.64 |  |  |  | COCCN1CCN(Cc2ccc(NC(=O)c3ccc(C)c(C#Cc4cnc5cccnn45)c3)cc2C2CC2)CC1 [CD-1-002, N-[3-cyclopropyl-4-[[4-(2-methoxyethyl)piperazin-1-yl]methyl]phenyl]-3-(2-imidazo[1,2-b]pyridazin-3-ylethynyl)-4-methyl-benzamide] | 81 | 62 | 100 | 81 | 126 |  |  |  | 
2 | 0.03 | 0.00557 |  |  |  | 9.93 | 11 | 9.93 | 8.87 | Cc1ccc(C(=O)Nc2ccc(CN3CCc4cn[nH]c4C3)c(Cl)c2)cc1C#Cc1cnc2cccnn12 [CD-1-051, N-[3-chloro-4-(1,4,5,7-tetrahydropyrazolo[3,4-c]pyridin-6-ylmethyl)phenyl]-3-(2-imidazo[1,2-b]pyridazin-3-ylethynyl)-4-methyl-benzamide] |  |  |  | 5020 | 506 | 5020 | 3840 | 6200 | 506
3 | > 0.1 | 0.00058 |  |  |  |  |  |  |  | Cc1cn(-c2cc(NC(=O)c3ccc(C)c(Nc4nccc(-c5cccnc5)n4)c3)cc(C(F)(F)F)c2)cn1 [Nilotinib, reference compound] |  |  |  |  |  |  |  |  | 

More lines, now with the values behind:

Row | Compound | IC50 (CYP2D6) [mM] | IC50 (CYP3A4) [mM] | IC50 (ABL1; [5]) [nM] | IC50 (ABL1; [6]) [nM] | IC50 (ABL1; [7]) [nM] | IC50 (ABL1; [8]) [nM] | IC50 (ABL1; [12]) [nM] | IC50 (ABL1; [13]) [nM] | IC50 (ABL1; [14]) [nM] | IC50 (hERG; [1]) [nM] | IC50 (hERG; [2]) [nM] | IC50 (hERG; [3]) [nM] | IC50 (hERG; [4]) [nM] | SI (hERG) | IC50 (hERG; [9]) [nM] | IC50 (hERG; [10]) [nM] | IC50 (hERG; [11]) [nM] | selectivity ratio at 4 h (hERG)
4 | Cc1ccc(C(=O)Nc2ccc(CN3Cc4ccc(O)cc4C3)c(Cl)c2)cc1C#Cc1cnc2cccnn12 [CD-1-067, N-(3-chloro-4-((5-hydroxyisoindolin-2-yl)methyl)phenyl)-3-(imidazo [1,2-b]pyridazin-3-ylethynyl)-4-methylbenzamide] | 0.00339 | 0.00461 |  |  |  | > 30 | > 30 |  | > 30 |  |  |  |  | <26 |  |  |  | 
5 | Cc1ccc(C(=O)Nc2ccc(CN3CCN(CCO)CC3)c(Cl)c2)cc1C#Cc1cnc2cccnn12 [TK3-141, N-[3-chloro-4-[[4-(2-hydroxyethyl)piperazin-1-yl]methyl]phenyl]-3-(2-imidazo[1,2-b]pyridazin-3-ylethynyl)-4-methyl-benzamide] | 0.00102 | 0.00801 | 0.31 | 0.297 | 0.285 | 0.3 |  |  |  | 345 | 138 | 552 | 345 | 1158 |  |  |  | 
6 | Cc1ccc(C(=O)Nc2ccc(CN3CCN(CCO)CC3)c(C3CC3)c2)cc1C#Cc1cnc2cccnn12 [TK3-144, N-[3-cyclopropyl-4-[[4-(2-hydroxyethyl)piperazin-1-yl]methyl]phenyl]-3-(2-imidazo[1,2-b]pyridazin-3-ylethynyl)-4-methyl-benzamide] | 0.00199 | 0.0118 | 0.413 | 0.392 | 0.371 | 0.39 |  |  |  | 103 | 105 | 102 | 103 | 263 |  |  |  | 
7 | Cc1ccc(C(=O)Nc2ccc(CN3Cc4cn[nH]c4C3)c(Cl)c2)cc1C#Cc1cnc2cccnn12 [ZD-3-167, N-[3-chloro-4-(4,6-dihydro-1H-pyrrolo[3,4-c]pyrazol-5-ylmethyl)phenyl]-3-(2-imidazo[1,2-b]pyridazin-3-ylethynyl)-4-methyl-benzamide] | 0.0137 | 0.00728 |  |  |  | 10.6 | 11.1 | 10.6 | 10.1 |  |  |  | > 10000 | >943 | 10200 | > 10000 | > 10000 | 963
